Earlier results on 29 compounds are cited in patent US11331358B2, “Pharmaceutical composition and method of manufacturing” (CURE PHARMACEUTICAL HOLDING CORP., priority 2014, dated 2022).

Values after ≈ are worked out from the molar mass of the structure shown. Like-named read-outs stand apart in the source and are kept apart here.

The conditions of this series: for Solubility in alcohols, lipids and organic solvents: solvents as named in the value; for Solubility in alcohols, lipids and organic solvents / Solubility in alkaline solutions: qualitative; for Solubility in alkaline solutions: alkaline solutions / alkalai.
[1] abbreviates: qualitative (insol. / sp. sol. / sol).

As to `CC12CCC(CC1)C(C)(C)O2` [1,8-cineole], the “Solubility in alcohols, lipids and organic solvents” value (“Solubility in alcohols” for short) is recorded as “sol. alcohols, organic solvents (ethers, halocarbons)”. Moreover, under setting [1], the “Solubility in water” value is reported as “insol”.

Take `CCCCCc1cc(O)c2c(c1)OC(C)(CCC=C(C)C)C=C2` (stereo not shown) [cannabichromene (CBC), cannabichromene]: the “Solubility in alcohols” value was “sol. pentane”. The “Solubility in water” value under setting [1] is on record as “insol”.

As to `CCCCCc1cc2c(c(O)c1C(=O)O)C=CC(C)(CCC=C(C)C)O2` (stereo not shown) [cannabichromenic acid (CBCA), cannabichromenic acid], the “Solubility in alkaline solutions” value is on record as “sol”; the “Solubility in alcohols” value is on record as “sol. alcohols”. For the same compound, the “Solubility in water” value under setting [1] is recorded as “sol”.

In the case of `CCCCCc1cc(O)c2c(c1)OC1(C)CCC3C1C2C3(C)C` (stereo not shown) [cannabicyclol (CBL), cannabicyclol], the “Solubility in alcohols” value is “sol. pentane”. Further, the “Solubility in water” value under setting [1] was “insol”.

Regarding `CCCCCc1cc2c(c(O)c1C(=O)O)C1C3C(CCC3(C)O2)C1(C)C` (stereo not shown) [cannabicyclolic acid (CBLA), cannabicyclolic acid], the “Solubility in alkaline solutions” value is “sol”; the “Solubility in alcohols” value is listed as “sol. alcohols”. Moreover, under setting [1], the “Solubility in water” value is “sol”.

Turning to `CCCCCc1cc(O)c(C/C=C(\C)CCC=C(C)C)c(O)c1` [cannabigerol (CBG), cannabigerol], the “Solubility in alcohols” value is recorded as “sol. pentane”. Also, under setting [1], the “Solubility in water” value was “insol”.

With `CCCCCc1cc(O)c(C/C=C(\C)CCC=C(C)C)c(O)c1C(=O)O` [cannabigerolic acid (CBGA), cannabigerolic acid], the “Solubility in alkaline solutions” value is given as “sol”; the “Solubility in alcohols” value is recorded as “sol. alcohols”. Moreover, the “Solubility in water” value under setting [1] is given as “sol”.

On to `CCCCCc1cc(O)c2c(c1)OC(C)(C)c1ccc(C)cc1-2` [cannabinol (CBN), cannabinol], for which the “Solubility in alcohols” value is “sol. MeOH, EtOH, lipids, non-polar organic solvents”. For the same compound, the “Solubility in water” value under setting [1] is “insol”.

Regarding `CCCCCc1cc2c(c(O)c1C(=O)O)-c1cc(C)ccc1C(C)(C)O2` [cannabinolic acid (CBNA), cannabinolic acid], the “Solubility in alkaline solutions” value is “sol”; the “Solubility in alcohols” value was “sol. alcohols”. The “Solubility in water” value under setting [1] was “sol”.

Take `COc1cc(-c2cc(=O)c3c(O)c(C/C=C(\C)CCC=C(C)C)c(O)cc3o2)ccc1O` [cannaflavin A]: the “Solubility in alkaline solutions” value is reported as “sol”; the “Solubility in alcohols” value is “sol. alcohols, ethers, halocarbons”. For the same compound, the “Solubility in water” value under setting [1] was “insol”.

Consider `COc1cc(-c2cc(=O)c3c(O)c(CC=C(C)C)c(O)cc3o2)ccc1O` [cannaflavin B], for which the “Solubility in alkaline solutions” value was “sol”; the “Solubility in alcohols” value was “sol. alcohols, ethers, halocarbons”. The “Solubility in water” value under setting [1] was “insol”.

With `Cc1ccc(C(C)C)cc1O` [carvacrol], the “Solubility in alcohols” value is “sol. alcohols, organic solvents (ethers, halocarbons)”. Under setting [1], the “Solubility in water” value is recorded as “sp. sol”.

In the case of `C=C(C)C1CC=C(C)C(=O)C1` (stereo not shown) [carvone], the “Solubility in alcohols” value is listed as “sol. alcohols, organic solvents (ethers, halocarbons)”. Further, the “Solubility in water” value under setting [1] is given as “insol”.

In the case of `C=C(C)C1CCC2(C)OC2C1` (stereo not shown) [limonene oxide], the “Solubility in alcohols” value is recorded as “sol. alcohols, organic solvents (ethers, halocarbons)”. In addition, the “Solubility in water” value under setting [1] is “insol”.

With `C=C(C)C1CC=C(C)CC1` (stereo not shown) [limonene], the “Solubility in alcohols” value was “sol. alcohols, organic solvents (ethers, halocarbons), hydrocarbons”. Further, the “Solubility in water” value under setting [1] is recorded as “insol”.

In the case of `Cc1ccc(C(C)C)cc1` [p-cymene], the “Solubility in alcohols” value is listed as “sol. alcohols, organic solvents (ethers, halocarbons), hydrocarbons”. Besides, the “Solubility in water” value under setting [1] is “insol”.

As to `C[C@@H]1CCC2(OC2(C)C)C(=O)C1` (stereo partly shown) [pulegone-1,2epoxide], the “Solubility in alcohols” value is “sol. alcohols, organic solvents (ethers, halocarbons)”. Also, the “Solubility in water” value under setting [1] is recorded as “insol”.

Turning to `CC(C)=C1CC[C@@H](C)CC1=O` [pulegone], the “Solubility in alcohols” value was “sol. alcohols, organic solvents (ethers, halocarbons)”. Besides, the “Solubility in water” value under setting [1] is given as “insol”.

For `CC1=CCC(O)(C(C)C)CC1` (stereo not shown) [terpinen-4-ol], the “Solubility in alcohols” value was “sol. alcohols, organic solvents (ethers, halocarbons)”. Further, under setting [1], the “Solubility in water” value was “insol”.

As for `C=C(C)C1CC=C(C)CC1c1c(O)cc(CCCCC)cc1O` (stereo not shown) [Δ(8)-tetrahydrocannabidiol (Δ(8)-CBD), Δ(8)-tetrahydrocannabidiol], the “Solubility in alcohols” value is “sol. pentane”. Further, the “Solubility in water” value under setting [1] was “insol”.

As to `C=C(C)C1CC=C(C)CC1c1c(O)cc(CCCCC)c(C(=O)O)c1O` (stereo not shown) [Δ(8)-tetrahydrocannabidiolic acid], the “Solubility in alkaline solutions” value is recorded as “sol”; the “Solubility in alcohols” value is “sol. alcohols”. Also, the “Solubility in water” value under setting [1] is reported as “sol”.

Turning to `CCCCCc1cc(O)c2c(c1)OC(C)(C)[C@@H]1CC=C(C)CC21` (stereo partly shown) [Δ(8)-tetrahydrocannabinol (Δ(8)-THC), Δ(8)-tetrahydrocannabinol], the “Solubility in alcohols” value was “sol. MeOH, EtOH sol. lipids sol. non-polar organic solvents”. For the same compound, the “Solubility in water” value under setting [1] is recorded as “insol”.

On to `CCCCCc1cc2c(c(O)c1C(=O)O)C1CC(C)=CC[C@H]1C(C)(C)O2` (stereo partly shown) [Δ(8)-tetrahydrocannabinolic acid], for which the “Solubility in alkaline solutions” value was “sol”; the “Solubility in alcohols” value is “sol. alcohols”. The “Solubility in water” value under setting [1] is given as “sol”.

For the compound `CCCc1cc(O)c2c(c1)OC(C)(C)[C@@H]1CCC(C)=CC21` (stereo partly shown) [Δ(9)- tetrahydrocannabivarin (Δ(9)-THV), Δ(9)-tetrahydrocannabivarin], the “Solubility in alkaline solutions” value is “sol”; the “Solubility in alcohols” value is “sol. alcohols”. For the same compound, under setting [1], the “Solubility in water” value is given as “sol”.

Consider `CCCCCc1cc(O)c2c(c1)OC(C)(C)[C@@H]1CCC(C)=CC21` (stereo partly shown) [Δ(9)-tetrahydrocannabinol (Δ(9)-THC), Δ(9)-tetrahydrocannabinol, reference compound], for which the “Solubility in alcohols” value is on record as “sol. MeOH, EtOH sol. lipids sol. non-polar organic solvents”. In addition, under “23° C.”, the Solubility in water was 2.8 µg/mL (≈ 8.9 µM).

Take `CCCCCc1cc2c(c(O)c1C(=O)O)C1C=C(C)CC[C@H]1C(C)(C)O2` (stereo partly shown) [Δ(9)-tetrahydrocannabinolic acid]: the “Solubility in alkaline solutions” value was “sol”; the “Solubility in alcohols” value is recorded as “sol. alcohols”. Further, under setting [1], the “Solubility in water” value was “sol”.

Consider `C=C1CCC2OC2(C)CC[C@H]2[C@H]1CC2(C)C` (stereo partly drawn) [β-caryophyllene epoxide], for which the “Solubility in alcohols” value is on record as “sol. alcohols, organic solvents (ethers, halocarbons)”. Moreover, under setting [1], the “Solubility in water” value is “insol”.

As for `C=CC(=C)CCC=C(C)C` [β-myrcene], under setting [1], the “Solubility in water” value was “insol”.

fenchone: the “Solubility in alcohols” value is “sol. alcohols, organic solvents (ethers, halocarbons)”. In addition, under setting [1], the “Solubility in water” value is on record as “insol”.
